What was measured:
[1] = system: lung cancer cell line A549; test: Inhibitory activity on Oxygen Consumption Rate (OCR); assay type: cell-based; settings: A549, 3 hrs, 10 uM compound; phenformin set to 100%, untreated control set to 0%
Protocol: The cellular metabolic activity of the compounds on Oxygen Consumption Rate (OCR) was evaluated, because the biguanide drugs have anticancer activity by inhibiting the oxidative phosphorylation of cancer cell.
A549 cells were inoculated at 5×10^3 cells in RPMI1640 media on XF96 cell culture plate and cultured for 24 h (temp; 37° C., 5% CO2) to make the cell adhere to the plate.
After 24 hr, A549 cells were treated by 10 μM of the compounds or phenformin, and were washed with XF analysis media using Prep station to remove the original media. A549 cells were retreated by compounds or phenformin and incubated for 1 hr (temp; 37° C., Non-CO2) in Prep station. While incubation in Prep station, sensor cartridge was calibrated for 1 hr. Then, the calibrated sensor cartridge was inserted to the cell plate to analyze OCR.
When OCR of phenformin as a reference drug was set to 100% and OCR of untreated control was set to 0%, the OCR of tested compounds was calculated by converting the measured OCR to be the relative percentage value (%).

[2] = system: HCT116 cell; test: Inhibitory activity against cancer cells (MTT cell viability), HCT116; assay type: cell-based, human; settings: Homo sapiens, HCT 116, 48 hr incubation
Protocol: (§1) The inhibitory activities of biguanide derivatives against cancer cells were evaluated in the cell line SK-MEL-28 derived from human Melanoma cell, Miapaka-2 cell line derived from human pancreatic cancer cell and HCT116 cell line derived from human colorectal cancer cell by measuring the concentration that inhibits 50% of the growth of the cell lines (the half maximal inhibitory concentration, IC50).
(§2) Firstly, SK-MEL-28 cells were grown to be density of 5,000 cells/well in RPMI-1640 media supplemented with 10% (v/v) bovine calf serum, on 96-well plates for 16 hr. To measure the IC50 of each compound, the cells were incubated for 48 hr with the 100 mM PBS stock compounds at an amount of 10 mM, 1 mM, 200 uM, 40 uM, 8 uM, 1.6 uM, 0.32 uM or 0.064 uM; 50 mM PBS and EtOH stock compounds at an amount of 1 mM, 200 uM, 40 uM, 8 uM, 1.6 uM, 0.32 uM and 0.064 uM; and 50 mM DMSO stock compounds at an amount of 100 uM, 25 uM, 6.25 uM, 1.56 uM, 0.39 uM, 0.10 uM and 0.02 uM, respectively. To test the viable cells after incubation with each compound, the cell cultures were incubated additionally for 2 hr in the presence of MTT. The produced formazan crystals were dissolved with dimethyl sulfoxide and then measured by detecting the absorbance at 560 nm.
(§3) After the 48 hr incubation, the viable cells were counted on the well plates treated with the compounds of the Examples relative to the count of the viable cells on the non-treated plates, and then was represented as the cell viability (%). By using the cell viability (%) result, the cell viability curve was plotted, and IC50 was calculated from the curve to evaluate the inhibitory activity against cancer cells.
(§4) The inhibitory activities of biguanide derivatives against cancer cells of Miapaca-2 cell and HCT116 cell were evaluated according to the substantially same method as described in SK-MEL-28 cell, except that DMEM media supplemented with 10% (v/v) bovine calf serum was used instead of RPMI-1640 media supplemented with 10% (v/v) bovine calf serum for SK-MEL-28 cell.

[3] = system: Miapaca-2 cell; test: Inhibitory activity against cancer cells (MTT cell viability), Miapaca-2; assay type: cell-based; settings: Homo sapiens, MIA PaCa-2, Miapaca-2, 48 hr incubation
Protocol: as §1, §2, §3, §4

[4] = system: SK-MEL-28 cells; test: Inhibitory activity against cancer cells (MTT cell viability), SK-MEL-28; assay type: cell-based; settings: Homo sapiens, SK-MEL-28, 48 hr incubation
Protocol: as §1, §2, §3

IC50 [2] [µM]	IC50 [3] [µM]	IC50 [4] [µM]	Structure (SMILES)	OCR inhibition relative to phenformin (%) [1] [%]
28.6			CC(C)c1ccc(NC(=N)NC(=N)N2CCCC2)cc1.Cl [Example 6, N1-pyrrolidine-N5-(4-isopropyl)phenyl biguanide]	44
> 100	47.9	182	Cl.N=C(NC(=N)N1CCC(O)CC1)Nc1ccc(OC(F)(F)F)cc1 [Example 18, N1-4-hydroxy piperidine-N5-(4-trifluoromethoxy)phenyl biguanide]	57
> 100	209	176	N=C(NC(=N)N1CCCC1)Nc1ccc(SCC(=O)N2CCCCC2)cc1 [Example 28, N—(N-(4-(2-oxo-2-(piperidin-1-yl)ethylthio)phenyl)carbamimidoyl)pyrrolidine-1-carboximidamide]	
182	> 100	> 100	CS(=O)(=O)C1CCN(C(=N)NC(=N)Nc2ccc(OC(F)(F)F)cc2)CC1 [Example 53, N1-4-(methylsulfonyl)piperidine-N5-(4-trifluoromethoxy)phenyl biguanide]	
59.5			Cl.N=C(NC(=N)N1CCc2ccccc2C1)N1CCCC1 [Example 89, N-(imino(pyrrolidin-1-yl)methyl)-3,4-dihydroisoquinoline-2(1H)-carboximidamide]	44

Further lines, the molecule ahead of its results:

Structure (SMILES)	IC50 [2] [µM]	IC50 [3] [µM]	IC50 [4] [µM]	OCR inhibition relative to phenformin (%) [1] [%]
C[C@H]1CCCN1C(=N)NC(=N)Nc1ccc(OC(F)(F)F)cc1.Cl [Example 16]	39.8			13
Cl.N=C(NC(=N)N1CCC(CO)C1)Nc1ccc(OC(F)(F)F)cc1 (stereo not drawn) [Example 20, N1-3-hydroxy methyl pyrrolidine-N5-(4-trifluoromethoxy)phenyl biguanide]	> 100	58.6	134	15
Cl.N=C(NC(=N)N1CCC(O)CC1)Nc1cccc(Oc2ccccc2)c1 [Example 22, N1-4-hydroxy piperidine-N5-(3-phenoxy)phenyl biguanide]		106		74
CN1CCN(C(=N)NC(=N)Nc2ccc(F)c(OC(F)(F)F)c2)CC1.Cl [Example 40, N1-4-methyl piperazine-N5-(4-fluoro-3-trifluoromethoxy)phenyl biguanide]	35.2			42.9
[H]/N=C(/N)N/C(=N/[H])NCCc1ccccc1 [Phenformin, phenformin, reference compound]	12.5	119	266	

— patent publication US10221190B2, “Biguanide compounds and use thereof” (IMMUNOMET THERAPEUTICS INC., priority 2013, dated 2019)
